This passage reports 3 h FOB score results from the OligoGym collection.

HELM strings list units from the 5' end as sugar, base in round brackets, then linkage (d deoxyribose, r ribose, m 2'-O-methyl, p phosphodiester). Strings are as the collection lists them; they lack the last nucleoside at the 3' end of the tested compound. [moe] = 2'-O-(2-methoxyethyl) (MOE); [sp] = phosphorothioate linkage; [m5C] = 5-methylcytosine

The target of the data set is ATXN2. Kind of data set: mouse, dose not given. As to conditions: ASO.

“RNA1{[moe](T)[sp].[moe](G)p.[moe](T)p.[moe](G)p.[moe](A)p.d(G)[sp].d(T)[sp].d(T)[sp].d([m5C])[sp].d(A)[sp].d([m5C])[sp].d([m5C])[sp].d(T)[sp].d(G)[sp].d([m5C])[sp].[moe](A)p.[moe](T)p.[moe]([m5C])[sp].[moe]([m5C])}$$$$ (last 3' nucleoside missing)” yielded a 3 h FOB score of 3.5 score 0-7.

In the case of “RNA1{[moe](T)[sp].[moe](G)p.[moe](T)p.[moe](G)p.[moe](T)p.d(A)[sp].d(T)[sp].d(T)[sp].d(T)[sp].d(T)[sp].d(T)[sp].d([m5C])[sp].d(T)[sp].d(T)[sp].d([m5C])[sp].[moe]([m5C])p.[moe](T)p.[moe]([m5C])[sp].[moe](A)}$$$$ (last 3' nucleoside missing)”, the 3 h FOB score came out at 0.25 score 0-7. The figure for “RNA1{[moe](T)[sp].[moe](G)p.[moe](T)p.[moe](G)p.[moe](T)p.d(T)[sp].d([m5C])[sp].d(A)[sp].d(T)[sp].d(G)[sp].d(A)[sp].d([m5C])[sp].d(T)[sp].d(T)[sp].d(T)[sp].[moe]([m5C])p.[moe](A)p.[moe](A)[sp].[moe](G)}$$$$ (last 3' nucleoside missing)” is 4.5 score 0-7; for “RNA1{[moe](T)[sp].[moe](G)p.[moe](T)p.[moe](T)p.[moe](A)p.d([m5C])[sp].d(T)[sp].d(G)[sp].d(T)[sp].d(T)[sp].d(T)[sp].d([m5C])[sp].d(G)[sp].d(A)[sp].d([m5C])[sp].[moe]([m5C])p.[moe](T)p.[moe]([m5C])[sp].[moe](T)}$$$$ (last 3' nucleoside missing)” it is 6.25 score 0-7. The substance “RNA1{[moe](T)[sp].[moe](G)p.[moe](T)p.[moe](T)p.[moe](A)p.d([m5C])[sp].d(T)[sp].d(T)[sp].d(A)[sp].d(T)[sp].d(T)[sp].d(A)[sp].d([m5C])[sp].d([m5C])[sp].d(T)[sp].[moe](T)p.[moe]([m5C])p.[moe]([m5C])[sp].[moe](T)}$$$$ (last 3' nucleoside missing)” had a 3 h FOB score of 4 score 0-7. In the case of “RNA1{[moe](T)[sp].[moe](G)p.[moe](T)p.[moe](T)p.[moe](G)p.d(T)[sp].d(T)[sp].d(G)[sp].d(T)[sp].d(T)[sp].d(T)[sp].d(A)[sp].d([m5C])[sp].d(A)[sp].d(T)[sp].[moe](T)p.[moe](A)p.[moe](T)[sp].[moe](T)}$$$$ (last 3' nucleoside missing)”, the 3 h FOB score came out at 0 score 0-7. Substance “RNA1{[moe](T)[sp].[moe](G)p.[moe](T)p.[moe](T)p.[moe](G)p.d([m5C])[sp].d(A)[sp].d([m5C])[sp].d(A)[sp].d(T)[sp].d(A)[sp].d(G)[sp].d(G)[sp].d(T)[sp].d(T)[sp].[moe](A)p.[moe](G)p.[moe](A)[sp].[moe](A)}$$$$ (last 3' nucleoside missing)” yielded a 3 h FOB score of 4 score 0-7. Then “RNA1{[moe](T)[sp].[moe](G)p.[moe](T)p.[moe](T)p.[moe](T)p.d(G)[sp].d(T)[sp].d(T)[sp].d(T)[sp].d(G)[sp].d(T)[sp].d(T)[sp].d(T)[sp].d(T)[sp].d(A)[sp].[moe](A)p.[moe](G)p.[moe](T)[sp].[moe](A)}$$$$ (last 3' nucleoside missing)”, with 6.5 score 0-7; and “RNA1{[moe](T)[sp].[moe](G)p.[moe](T)p.[moe](T)p.[moe]([m5C])p.d(T)[sp].d(T)[sp].d([m5C])[sp].d([m5C])[sp].d(A)[sp].d(A)[sp].d(T)[sp].d(T)[sp].d(T)[sp].d([m5C])[sp].[moe](A)p.[moe](G)p.[moe](A)[sp].[moe]([m5C])}$$$$ (last 3' nucleoside missing)”, with 0 score 0-7.

“RNA1{[moe](T)[sp].[moe](G)p.[moe](T)p.[moe]([m5C])p.[moe](A)p.d(T)[sp].d(A)[sp].d([m5C])[sp].d(T)[sp].d(G)[sp].d(T)[sp].d(A)[sp].d(T)[sp].d(T)[sp].d(G)[sp].[moe](T)p.[moe](T)p.[moe](T)[sp].[moe](T)}$$$$ (last 3' nucleoside missing)” registered a 3 h FOB score of 5.25 score 0-7.

Take “RNA1{[moe](T)[sp].[moe](G)p.[moe]([m5C])p.[moe](A)p.[moe](A)p.d([m5C])[sp].d(T)[sp].d(T)[sp].d(A)[sp].d(A)[sp].d(T)[sp].d(A)[sp].d(A)[sp].d([m5C])[sp].d([m5C])[sp].[moe](T)p.[moe](T)p.[moe](A)[sp].[moe](G)}$$$$ (last 3' nucleoside missing)”: the 3 h FOB score was found to be 1.75 score 0-7. “RNA1{[moe](T)[sp].[moe](G)p.[moe]([m5C])p.[moe](T)p.[moe](A)[sp].d(A)[sp].d([m5C])[sp].d(T)[sp].d(G)[sp].d(G)[sp].d(T)[sp].d(T)[sp].d(T)[sp].[moe](G)p.[moe]([m5C])p.[moe]([m5C])[sp].[moe]([m5C])}$$$$ (last 3' nucleoside missing)” showed a 3 h FOB score of 6 score 0-7. For the substance “RNA1{[moe](T)[sp].[moe](G)p.[moe]([m5C])p.[moe](T)p.[moe](A)p.d(A)[sp].d([m5C])[sp].d(T)[sp].d(G)[sp].d(G)[sp].d(T)[sp].d(T)[sp].d(T)[sp].d(G)[sp].d([m5C])[sp].[moe]([m5C])p.[moe]([m5C])p.[moe](T)[sp].[moe](T)}$$$$ (last 3' nucleoside missing)”, the 3 h FOB score was 7 score 0-7.

Substance “RNA1{[moe](T)[sp].[moe](G)p.[moe]([m5C])p.[moe](T)p.[moe](T)p.d(A)[sp].d(T)[sp].d(T)[sp].d(A)[sp].d(T)[sp].d(T)[sp].d([m5C])[sp].d(T)[sp].d([m5C])[sp].d(A)[sp].[moe]([m5C])p.[moe](A)p.[moe](T)[sp].[moe](A)}$$$$ (last 3' nucleoside missing)” returned a 3 h FOB score of 0 score 0-7.

On to “RNA1{[moe](T)[sp].[moe](G)p.[moe]([m5C])p.[moe](T)p.[moe]([m5C])p.d(T)[sp].d([m5C])[sp].d(T)[sp].d(T)[sp].d(T)[sp].d(G)[sp].d([m5C])[sp].d(G)[sp].d([m5C])[sp].d([m5C])[sp].[moe](T)p.[moe](G)p.[moe](T)[sp].[moe](G)}$$$$ (last 3' nucleoside missing)”, for which the 3 h FOB score turned out to be 5 score 0-7.

In the case of “RNA1{[moe](T)[sp].[moe](G)p.[moe]([m5C])p.[moe]([m5C])p.[moe](T)[sp].d([m5C])[sp].d(T)[sp].d(A)[sp].d([m5C])[sp].d(T)[sp].d([m5C])[sp].d(G)[sp].d(G)[sp].[moe](T)p.[moe]([m5C])p.[moe]([m5C])[sp].[moe](A)}$$$$ (last 3' nucleoside missing)”, the 3 h FOB score stood at 4 score 0-7. In the case of “RNA1{[moe](T)[sp].[moe](T)p.[moe](A)p.[moe](A)p.[moe]([m5C])p.d(A)[sp].d([m5C])[sp].d(T)[sp].d(T)[sp].d(T)[sp].d(A)[sp].d([m5C])[sp].d(T)[sp].d([m5C])[sp].d(A)[sp].[moe]([m5C])p.[moe](T)p.[moe](G)[sp].[moe]([m5C])}$$$$ (last 3' nucleoside missing)”, the 3 h FOB score worked out at 4.5 score 0-7.

Substance “RNA1{[moe](T)[sp].[moe](T)p.[moe](A)p.[moe](A)p.[moe]([m5C])p.d(T)[sp].d(G)[sp].d(T)[sp].d(G)[sp].d(T)[sp].d(T)[sp].d(A)[sp].d(G)[sp].d(A)[sp].d(A)[sp].[moe](T)p.[moe](G)p.[moe]([m5C])[sp].[moe](T)}$$$$ (last 3' nucleoside missing)” returned a 3 h FOB score of 5.5 score 0-7.

For the substance “RNA1{[moe](T)[sp].[moe](T)p.[moe](A)p.[moe](G)p.[moe](A)[sp].d(G)[sp].d(T)[sp].d(T)[sp].d(T)[sp].d(T)[sp].d(T)[sp].d(G)[sp].d([m5C])[sp].[moe]([m5C])p.[moe](T)p.[moe](T)[sp].[moe]([m5C])}$$$$ (last 3' nucleoside missing)”, the 3 h FOB score turned out to be 5.5 score 0-7.

In the case of “RNA1{[moe](T)[sp].[moe](T)p.[moe](A)p.[moe](G)p.[moe](A)p.d(G)[sp].d(T)[sp].d(T)[sp].d(T)[sp].d(T)[sp].d(T)[sp].d(G)[sp].d([m5C])[sp].d([m5C])[sp].d(T)[sp].[moe](T)p.[moe]([m5C])p.[moe]([m5C])[sp].[moe](A)}$$$$ (last 3' nucleoside missing)”, the 3 h FOB score came to 3.5 score 0-7. Then “RNA1{[moe](T)[sp].[moe](T)p.[moe](A)p.[moe](G)p.[moe](G)p.d([m5C])[sp].d(T)[sp].d(A)[sp].d(G)[sp].d(G)[sp].d([m5C])[sp].d(A)[sp].d([m5C])[sp].d(A)[sp].d(T)[sp].[moe](G)p.[moe](G)p.[moe](A)[sp].[moe](G)}$$$$ (last 3' nucleoside missing)”, with 5.25 score 0-7; and “RNA1{[moe](T)[sp].[moe](T)p.[moe](A)p.[moe](G)p.[moe]([m5C])p.d(T)[sp].d([m5C])[sp].d(A)[sp].d(T)[sp].d([m5C])[sp].d(A)[sp].d(A)[sp].d(G)[sp].d(G)[sp].d(T)[sp].[moe](A)p.[moe]([m5C])p.[moe]([m5C])[sp].[moe](A)}$$$$ (last 3' nucleoside missing)”, with 3.75 score 0-7; and “RNA1{[moe](T)[sp].[moe](T)p.[moe](A)p.[moe]([m5C])p.[moe](T)[sp].d(G)[sp].d(T)[sp].d(T)[sp].d(T)[sp].d([m5C])[sp].d(G)[sp].d(A)[sp].d([m5C])[sp].[moe]([m5C])p.[moe](T)p.[moe]([m5C])[sp].[moe](T)}$$$$ (last 3' nucleoside missing)”, with 6 score 0-7. In the case of “RNA1{[moe](T)[sp].[moe](T)p.[moe](A)p.[moe]([m5C])p.[moe](T)p.d(G)[sp].d(T)[sp].d(T)[sp].d(T)[sp].d([m5C])[sp].d(G)[sp].d(A)[sp].d([m5C])[sp].d([m5C])[sp].d(T)[sp].[moe]([m5C])p.[moe](T)p.[moe](G)[sp].[moe](A)}$$$$ (last 3' nucleoside missing)”, the 3 h FOB score was 4.5 score 0-7.

Substance “RNA1{[moe](T)[sp].[moe](T)p.[moe](A)p.[moe]([m5C])p.[moe](T)p.d(T)[sp].d([m5C])[sp].d(T)[sp].d(T)[sp].d(T)[sp].d(T)[sp].d(G)[sp].d([m5C])[sp].d(T)[sp].d(A)[sp].[moe](G)p.[moe]([m5C])p.[moe](T)[sp].[moe](G)}$$$$ (last 3' nucleoside missing)” came in with a 3 h FOB score of 1 score 0-7. Then “RNA1{[moe](T)[sp].[moe](T)p.[moe](G)p.[moe](A)p.[moe](A)p.d(T)[sp].d(T)[sp].d(A)[sp].d([m5C])[sp].d(A)[sp].d(A)[sp].d(T)[sp].d(G)[sp].d([m5C])[sp].d(G)[sp].[moe](G)p.[moe](T)p.[moe](A)[sp].[moe](T)}$$$$ (last 3' nucleoside missing)”, with 4 score 0-7.
